According to patent US20210052703A1 (SHANGHAI BENEMAE PHARMACEUTICAL CORPORATION, priority 2018, published 2021):
Read-outs that look alike come from different tables or passages of the source.

How the values were obtained:
[1] = test system: rabbits with normal glycemic index; assay: glucose-induced high blood sugar in rabbits; format: in vivo
rats = assay: blood sugar increase induced by alloxan and streptozotocin in rats; format: in vivo
[2] = test system: male diet induced obesity (DIO) mice; details: for % of Gastric Remains / Gross Weight of Stomach / Propelling Distance of Carbon Powder / Propelling Rate of Carbon Powder: X ± SE
Description: Five minutes after subcutaneous injection, gavage was conducted using 5% carbon powder suspension (in 2% carboxymethylcellulose solution) at 1.5 ml/100 g body weight. […] The stomach was wiped dry with filter paper and weighed for the gross weight of the stomach. Then the content of the stomach was removed and the stomach was weighed for the net weight. The respective distance from the pyloric sphincter to the front of carbon powder suspension and to the distal end of the large intestine was measured. • propelling distance of carbon powder in the intestine (cm)=distance from pylorus to the proximal end of carbon powder; • mass of carbon powder gavaged=concentration of carbon powder suspension×volume; • propelling rate of carbon powder (%)=propelling distance of carbon powder in the intestine (cm)/entire length of intestine (cm)×100%; • rate of gastric remains (%)=(gross weight of stomach−net weight of stomach)/mass of carbon powder gavaged×100%.
The animals were fasted 29-33 hours before injection, and the animals were not given any water 5-7 hours before injection. Injections were made by subcutaneous administration to the neck, at 0.1 ml/100 g body weight.

[3] = test system: diet-induced obesity cynomolgus monkeys; assay: body weight, food intake and body composition in diet-induced obesity cynomolgus monkeys (Example 4)
Description: (§1) The monkeys are divided into two groups based on age, sex, body weight and BMI, each group having one male and one female.
(§2) The study included three periods: baseline period (the first week), treatment period (the second week through the seventh week), and recovering period (the eighth week). After the monkeys adapted to the meal time for at least 30 days, the body weight, BMI, and body composition of each animal was determined at day 7 of the first baseline period.
(§3) Group 2 animals were administered three times a day at a dose of 10 μg/kg each time during week 2, three times a day at a dose of 20 μg/kg each time during week 3, and three times a day at a dose of 40 μg/kg each time during the first three days of week 4.
(§4) The dose for Group 1 animals during week 5 through week 7 was determined based on the dose given to Group 2 animals during week 2 through week 4. Group 1 animals were administered twice a day at a dose of 10 μg/kg each time during week 5, twice a day at a dose of 20 μg/kg each time during week 6, and twice a day at a dose of 20 μg/kg each time during week 7 (same dose as week 6). During the 6-week treatment period, the body weight and crown-rump height of each animal were measured at the end of each week. The body fat content was measured at week 4 and week 7. No administration was given during week 8.
(§5) The body weight was measured once a week, and crown-rump height was measured at the end of week 1, week 4, and week 7 when Dual-Energy X-ray Absorptiometry (DEXA) scan was taken. The animals were anesthetized by intramuscular administration of 0.02 m/kg Shumianning. While resting on one side, the animals were measured from the top of the head to the bottom of tail as the crown-rump height. BMI was calculated using the formula: BMI=body weight (kg)/crown-rump height (m)^2. DEXA scan was conducted while the animals were anesthetized and body compositions were analyzed based on DEXA scan.

[4] = as above; details: both, cynomolgus monkey, in vivo, sc
Description: as §1, §2, §3, §4, §5

type 2 diabetic patients = assay: trial 5B: Beinaglutide with metformin in type 2 diabetic patients
diabetes patients = details: 0.2 mg TID for 12 weeks; temporary
[5] = test system: patients with type 2 diabetes; assay: trial 5C: Beinaglutide with metformin, multicenter, type 2 diabetes; format: in vivo, human
Text: Note: Covariance analysis was used for comparison between groups. The dependent variable was the change in body weight relative to baseline, and the covariate was baseline. Body weight change from baseline=post-treatment−baseline. Data from 5C test data.

[6] = Test group (Beinaglutide+metformin), 84 days (12 weeks) from baseline
[7] = Test group, 248 subjects, 84 days from baseline
[8] = Test group, 84 days from baseline

CC[C@H](C)[C@H](NC(=O)[C@H](Cc1ccccc1)NC(=O)[C@H](CCC(=O)O)NC(=O)[C@H](CCCCN)NC(=O)[C@H](C)NC(=O)[C@H](C)NC(=O)[C@H](CCC(N)=O)NC(=O)CNC(=O)[C@H](CCC(=O)O)NC(=O)[C@H](CC(C)C)NC(=O)[C@H](Cc1ccc(O)cc1)NC(=O)[C@H](CO)NC(=O)[C@H](CO)NC(=O)[C@@H](NC(=O)[C@H](CC(=O)O)NC(=O)[C@H](CO)NC(=O)[C@@H](NC(=O)[C@H](Cc1ccccc1)NC(=O)[C@@H](NC(=O)CNC(=O)[C@H](CCC(=O)O)NC(=O)[C@H](C)NC(=O)[C@@H](N)Cc1cnc[nH]1)[C@@H](C)O)[C@@H](C)O)C(C)C)C(=O)N[C@@H](C)C(=O)N[C@@H](Cc1c[nH]c2ccccc12)C(=O)N[C@@H](CC(C)C)C(=O)N[C@H](C(=O)N[C@@H](CCCCN)C(=O)NCC(=O)N[C@@H](CCCNC(=N)N)C(=O)O)C(C)C [Beinaglutide]
effect on glucose-induced high blood sugar [1]: lower glucose-induced high blood sugar | effect on increase of blood sugar induced by alloxan and streptozotocin (rats): reduce the increase of blood sugar induced by alloxan and streptozotocin | human dose corresponding to effective dose ([2]; from DIO mice 15 μg/kg): 0.12 mg/day | effective dose (inhibition of stomach emptying), as low as ([2]; male DIO mice): 0.015 mg/kg | % of Gastric Remains ([2]; male DIO mice, 15 μg/kg): 58.92 ± 3.39% | Gross Weight of Stomach ([2]; male DIO mice, 15 μg/kg): 0.49 ± 0.02 g | Propelling Distance of Carbon Powder ([2]; male DIO mice, 15 μg/kg): 20.50 ± 1.89 cm | Propelling Rate of Carbon Powder ([2]; male DIO mice, 15 μg/kg): 47.34 ± 4.63% | % of Gastric Remains ([2]; male DIO mice, 20 μg/kg): 63.46 ± 9.45% | Gross Weight of Stomach ([2]; male DIO mice, 20 μg/kg): 0.50 ± 0.04 g | Propelling Distance of Carbon Powder ([2]; male DIO mice, 20 μg/kg): 14.21 ± 2.59 cm | Propelling Rate of Carbon Powder ([2]; male DIO mice, 20 μg/kg): 34.86 ± 6.72% | % of Gastric Remains ([2]; male DIO mice, 25 μg/kg): 62.69 ± 7.26% | Gross Weight of Stomach ([2]; male DIO mice, 25 μg/kg): 0.53 ± 0.03 g | Propelling Distance of Carbon Powder ([2]; male DIO mice, 25 μg/kg): 15.00 ± 2.45 cm | Propelling Rate of Carbon Powder ([2]; male DIO mice, 25 μg/kg): 35.25 ± 5.72% | % of Gastric Remains ([2]; male DIO mice, 50 μg/kg): 70.86 ± 7.41% | Gross Weight of Stomach ([2]; male DIO mice, 50 μg/kg): 0.55 ± 0.02 g | Propelling Distance of Carbon Powder ([2]; male DIO mice, 50 μg/kg): 10.00 ± 1.04 cm | Propelling Rate of Carbon Powder ([2]; male DIO mice, 50 μg/kg): 23.80 ± 2.41% | % of Gastric Remains ([2]; male DIO mice, 75 μg/kg): 78.34 ± 5.75% | Gross Weight of Stomach ([2]; male DIO mice, 75 μg/kg): 0.57 ± 0.03 g | Propelling Distance of Carbon Powder ([2]; male DIO mice, 75 μg/kg): 9.29 ± 1.23 cm | Propelling Rate of Carbon Powder ([2]; male DIO mice, 75 μg/kg): 21.51 ± 2.63% | % of Gastric Remains ([2]; male DIO mice, 100 μg/kg): 74.37 ± 6.06% | Gross Weight of Stomach ([2]; male DIO mice, 100 μg/kg): 0.56 ± 0.02 g | Propelling Distance of Carbon Powder ([2]; male DIO mice, 100 μg/kg): 9.00 ± 1.12 cm | Propelling Rate of Carbon Powder ([2]; male DIO mice, 100 μg/kg): 20.87 ± 2.19% | body fat content ([3]; Group 1, end of week 7, compared to baseline): decrease in body fat content | body fat content ([3]; Group 2, end of week 4, compared to baseline): significant decrease in body fat content | signs of anorexia ([3]; Group 2, 40 μg/kg three times a day, first three days of week 4): severe signs of anorexia | Body Weight ([3]; animal F1 (female, Group 1), Week 5, 10 μg/kg twice a day, Week 4 before treatment 5.96): 5.92 kg | BMI ([3]; animal F1, Week 5, 10 μg/kg twice a day, Week 4 before treatment 41): 39 kg/m^2 | Body Weight ([3]; animal F1, Week 6, 20 μg/kg twice a day, Week 4 before treatment 5.96): 5.94 kg | BMI ([3]; animal F1, Week 6, 20 μg/kg twice a day, Week 4 before treatment 41): 39 kg/m^2 | Body Weight ([3]; animal F1, Week 7, 20 μg/kg twice a day, Week 4 before treatment 5.96): 5.84 kg | BMI ([3]; animal F1, Week 7, 20 μg/kg twice a day, Week 4 before treatment 41): 38 kg/m^2 | Fat Content (DEXA) ([3]; animal F1, Week 7, after Beinaglutide weeks 5-7, Week 4 1.98): 1.81 kg | Lean Mass (DEXA) ([3]; animal F1, Week 7, after Beinaglutide weeks 5-7, Week 4 4.09): 3.98 kg | Body Fat Percentage ([3]; animal F1, Week 7, after Beinaglutide weeks 5-7, Week 4 33.2): 31.0% | Body Weight ([3]; animal F2 (female, Group 2), Week 2, 10 μg/kg three times a day, Week 1 baseline 6.18): 5.96 kg | Body Weight ([3]; animal F2, Week 3, 20 μg/kg three times a day, Week 1 baseline 6.18): 5.76 kg | Body Weight ([3]; animal F2, Week 4, 40/20 μg/kg three times a day, Week 1 baseline 6.18): 5.56 kg | BMI ([3]; animal F2, Week 4, 40/20 μg/kg three times a day, Week 1 baseline 41): 37 kg/m^2 | Fat Content (DEXA) ([3]; animal F2, Week 4, after Beinaglutide weeks 2-4, baseline 2.97): 2.71 kg | Lean Mass (DEXA) ([3]; animal F2, Week 4, after Beinaglutide weeks 2-4, baseline 3.17): 2.89 kg | Body Fat Percentage ([3]; animal F2, Week 4, after Beinaglutide weeks 2-4, baseline 48.1): 48.7% | Body Weight ([3]; animal M1 (male, Group 1), Week 5, 10 μg/kg twice a day, Week 4 before treatment 11.20): 10.90 kg | BMI ([3]; animal M1, Week 5, 10 μg/kg twice a day, Week 4 before treatment 51): 49 kg/m^2 | Body Weight ([3]; animal M1, Week 6, 20 μg/kg twice a day, Week 4 before treatment 11.20): 10.44 kg | BMI ([3]; animal M1, Week 6, 20 μg/kg twice a day, Week 4 before treatment 51): 47 kg/m^2 | Body Weight ([3]; animal M1, Week 7, 20 μg/kg twice a day, Week 4 before treatment 11.20): 10.26 kg | BMI ([3]; animal M1, Week 7, 20 μg/kg twice a day, Week 4 before treatment 51): 46 kg/m^2 | Fat Content (DEXA) ([3]; animal M1, Week 7, after Beinaglutide weeks 5-7, Week 4 3.66): 3.15 kg | Lean Mass (DEXA) ([3]; animal M1, Week 7, after Beinaglutide weeks 5-7, Week 4 7.35): 6.92 kg | Body Fat Percentage ([3]; animal M1, Week 7, after Beinaglutide weeks 5-7, Week 4 32.7): 30.7% | Body Weight ([3]; animal M2 (male, Group 2), Week 2, 10 μg/kg three times a day, Week 1 baseline 10.52): 10.30 kg | BMI ([3]; animal M2, Week 2, 10 μg/kg three times a day, Week 1 baseline 52): 51 kg/m^2 | Body Weight ([3]; animal M2, Week 3, 20 μg/kg three times a day, Week 1 baseline 10.52): 10.00 kg | Body Weight ([3]; animal M2, Week 4, 40/20 μg/kg three times a day, Week 1 baseline 10.52): 9.70 kg | BMI ([3]; animal M2, Week 4, 40/20 μg/kg three times a day, Week 1 baseline 52): 48 kg/m^2 | Fat Content (DEXA) ([3]; animal M2, Week 4, after Beinaglutide weeks 2-4, baseline 3.49): 2.88 kg | Lean Mass (DEXA) ([3]; animal M2, Week 4, after Beinaglutide weeks 2-4, baseline 6.88): 6.59 kg | Body Fat Percentage ([3]; animal M2, Week 4, after Beinaglutide weeks 2-4, baseline 33.2): 29.7% | body weight after three-week treatment ([3]; compared to baseline period, n=4, p<0.05): significant weight loss | weekly food/calories intake ([3]; during Beinaglutide treatment period compared to before treatment, p<0.05): significantly decreased | BMI after three weeks of treatment ([3]; two groups of animals): decreased | MTD at 504 h [4]: 0.02 to 0.04 mg/kg | BMI (type 2 diabetic patients; 0.1 mg three times a day with metformin, treatment for 2 weeks, FAS n = 73, Day 1 26.24 ± 3.31): 26.12 ± 3.29 kg/m^2 | BMI (type 2 diabetic patients; 0.1 mg three times a day with metformin, treatment for 4 weeks, FAS n = 73, Day 1 26.24 ± 3.31): 26.02 ± 3.33 kg/m^2 | BMI (type 2 diabetic patients; 0.1 mg three times a day with metformin, treatment for 8 weeks, FAS n = 73, Day 1 26.24 ± 3.31): 25.84 ± 3.25 kg/m^2 | BMI (type 2 diabetic patients; 0.1 mg three times a day with metformin, treatment for 12 weeks, FAS n = 73, Day 1 26.24 ± 3.31): 25.76 ± 3.21 kg/m^2 | BMI (type 2 diabetic patients; 0.2 mg three times a day with metformin, treatment for 2 weeks, FAS n = 70, Day 1 25.14 ± 3.10): 25.03 ± 3.21 kg/m^2 | BMI (type 2 diabetic patients; 0.2 mg three times a day with metformin, treatment for 4 weeks, FAS n = 70, Day 1 25.14 ± 3.10): 24.85 ± 3.25 kg/m^2 | BMI (type 2 diabetic patients; 0.2 mg three times a day with metformin, treatment for 8 weeks, FAS n = 70, Day 1 25.14 ± 3.10): 24.54 ± 3.33 kg/m^2 | BMI (type 2 diabetic patients; 0.2 mg three times a day with metformin, treatment for 12 weeks, FAS n = 70, Day 1 25.14 ± 3.10): 24.43 ± 3.42 kg/m^2 | most common side effects (diabetes patients): nausea and vomiting | Week 12 BMI ([5]; 0.2 mg three times a day with metformin, Baseline BMI 25.81): 25.09 kg/m^2 | BMI Change ([5]; 0.2 mg three times a day with metformin, baseline to week 12, 0 mg group −0.40): −0.72 | difference Test-Control group in body weight change, Corrected mean ([5]; 84 days after medication, covariance analysis, P 0.0075): −0.82 | change in body weight from baseline, median ([5]; Test group (0.2 mg three times a day + metformin), overweight and obese patients, ITT, 84 days after medication): -2.00 kg | change in body weight from baseline, Mean ± standard deviation ([5]; Test group (0.2 mg three times a day + metformin), overweight and obese patients, ITT, 84 days after medication, 248 subjects): -2.22 ± 2.55 kg | proportion of subjects with Weight loss ≥ 3% [5, 6]: (40.32) % | proportion of subjects with weight loss ≥5% [5, 6]: (20.97) % | number of subjects with Weight loss < 3% [5, 7]: 148 | number of subjects with Weight loss < 5% [5, 7]: 196 | number of subjects with Weight loss ≥ 3% [5, 7]: 100 | number of subjects with Weight loss ≥ 5% [5, 7]: 52 | proportion of subjects with Weight loss < 3% [5, 8]: (59.68) % | proportion of subjects with Weight loss < 5% [5, 8]: (79.03) %
